Patent publication US20080268036A1, “Co-processing of active pharmaceutical/nutraceutical ingredients” (JRS Pharma, priority 2007, published 2008)

Format: physicochemical
Description: The slurry should be thoroughly agitated during preparation with a suitable device (like an electric lab stirrer). The desired temperature for heating the slurry will vary depending on the solubility of the active agent and the temperature that the active agent begins to degrade.

temperature dependent solubility in water: greater than 60 °C
Compound: Cl.N[C@H]1C(O)O[C@H](CO)[C@@H](O)[C@@H]1O (stereo partly shown) [Glucosamine HCl]
